Reference: EP1444982A1, “The use of purine derivatives as selective kinase inhibitors” (MERCKLE GMBH, priority 2003, dated 2004)

Key:
Type in all cases: biochemical
MAPK2 (h) = MAPK2 (h) (Homo sapiens, UniProt P28482); test: Kinase inhibition assay: MAPK2; details: 30µM Testsubstanz (100 µM ATP); read-out: Hemmung von Kinasen in % MAPK2 (h)
Description: (§1) Alle Kinasen werden auf zehnfache Arbeitskonzentration vor Anwendung in dem Essay verdünnt. Die Zusammensetzung des Verdünnungspuffers ist für jede Kinase in der nachfolgenden Tabelle angegeben.
(§2) Alle Substrate werden gelöst und auf eine Stammlösung in entsalztem Wasser verdünnt.

c-RAF (h) = c-RAF (h) (Homo sapiens, UniProt P04049); test: Kinase inhibition assay (33P-ATP, P30 filter, scintillation counting): c-RAF; details: 40 min; 30µM Testsubstanz (100 µM ATP); read-out: Hemmung von Kinasen in % c-RAF (h)
Protocol: as §1, §2
(§3) c-RAF (ha)(5-10 mU) in einem Endreaktionsvolumen von 25 µl wird mit 25 mM Tris pH 7.5,.0.02 mM EGTA, 0.66 mg/ml Myelin-Basisprotein, 10 mM MgAcetat und [γ-^33P-ATP] inkubiert (spezifische Aktivität etwa 50 cpm/pmol, Konzentration wie erforderlich). Die Reaktion wird durch Zugabe von Mg^2+[γ-^33P-ATP] initiiert. Nach 40-minütiger Inkubation bei Raumtemperatur wird die Reaktion durch Zugabe von 5 µl einer 3 %igen Phosphorsäurelösung gestoppt. 10 µl der Reaktion werden dann auf ein P30-Filter gegeben und dreimal jeweils 5 Minuten in 50 mM Phosphorsäure und einmal in Methanol gewaschen. Anschließend wird getrocknet und eine Szintillationszählung durchgeführt.

SAPK2a (h) = SAPK2a (h) (Homo sapiens, UniProt Q16539); test: Kinase inhibition assay (33P-ATP, P30 filter, scintillation counting): SAPK2a; details: 30µM Testsubstanz (100 µM ATP); read-out: Hemmung von Kinasen in % SAPK2a (h)
Protocol: as §1, §2
as §3, with “SAPK2a (h) wird” for “c-RAF (ha)(5-10 mU)”, “µl” for “µl wird”, “7,5, 0.02” for “7.5,.0.02”, “0.33” for “0.66”

GSK3β (h) = GSK3β (h) (Homo sapiens, UniProt P49841); test: Kinase inhibition assay (33P-ATP, P30 filter, scintillation counting): GSK3β; details: 30µM Testsubstanz (100 µM ATP); read-out: Hemmung von Kinasen in % GSK3β (h)
Protocol: as §1, §2
as §3, with “GSK3β (h)(5-10mU) in” for “c-RAF (ha)(5-10 mU) in”, “mit 8” for “mit 25”, “mM MOPS” for “mM Tris”, “pH 7.0, 0.2” for “pH 7.5,.0.02”, “mM EDTA, 20 µM […](p) EDEEE (phospho GS2 Peptid),” for “mM EGTA, 0.66 mg/ml Myelin-Basisprotein,”, “etwa 500” for “etwa 50”

ROCKII (h) = test: Kinase inhibition assay (33P-ATP, P30 filter, scintillation counting): ROCK-II; details: 30µM Testsubstanz (100 µM ATP); 40 min
MAPK1 (h) = MAPK1 (h) (Homo sapiens, UniProt P27361); test: Kinase inhibition assay: MAPK1; details: 30µM Testsubstanz (100 µM ATP); read-out: Hemmung von Kinasen in % MAPK1 (h)
Description: as §1, §2

JNK3 (r) = JNK3 (r) (Rattus norvegicus, UniProt P49187); test: Kinase inhibition assay: JNK3; details: 30µM Testsubstanz (100 µM ATP); read-out: Hemmung von Kinasen in % JNK3 (r)
Description: as §1, §2

PKA (h) = test: Kinase inhibition assay (33P-ATP, P30 filter, scintillation counting): PKA; details: 30µM Testsubstanz (100 µM ATP); 40 min
PKB (h) = PKB (h) (Homo sapiens, UniProt P31749); test: Kinase inhibition assay (33P-ATP, P30 filter, scintillation counting): PKB; details: 40 min; 30µM Testsubstanz (100 µM ATP); read-out: Hemmung von Kinasen in % PKB (h)
Protocol: as §1, §2
as §3, with “PKBα (h)(5-10mU) wird in” for “c-RAF (ha)(5-10 mU) in”, “µl” for “µl wird”, “mit 8” for “mit 25”, “mM MOPS” for “mM Tris”, “pH 7.0, 0.2” for “pH 7.5,.0.02”, “mM EDTRA, 30 µM GRPRTSSFAEGKK,” for “mM EGTA, 0.66 mg/ml Myelin-Basisprotein,”

MEK1 (h) = MEK1 (h) (Homo sapiens, UniProt Q02750); test: Kinase inhibition assay: MEK1 (coupled to MAPK2 assay); details: 30µM Testsubstanz (100 µM ATP); read-out: Hemmung von Kinasen in % MEK1 (h)
Protocol: as §1, §2
MEK1 (h)(1-5 mU) in einem Endreaktionsvolumen von 25 µl wird mit 50 mM Tris pH 7.5, 0.2 mM EGTA, 0.1 % b-Mercaptoethanol, 0,01 % Brij-35, 1 µM inaktives MAPK2 (m), 10 mM MgAcetat und kaltem ATP inkubiert (Konzentration wie erforderlich). Die Reaktion wird durch Zugabe von MgATB initiiert. Nach 40-minütiger Inkubation bei Raumtemperatur werden […] dieses Inkubationsgemisches dazu verwendet, den oben beschriebenen MAPK2-Assay zu initiieren.

Lck (h) = Lck (h) (Homo sapiens, UniProt P06239); test: Kinase inhibition assay (33P-ATP, P30 filter, scintillation counting): Lck; details: 30µM Testsubstanz (100 µM ATP); read-out: Hemmung von Kinasen in % Lck (h)
Protocol: as §1, §2
as §3, with “Lck (h)(5-10 mU)” for “c-RAF (ha)(5-10 mU)”, “mit 50” for “mit 25”, “pH 7.5, 0.1” for “pH 7.5,.0.02”, “EGTA, 0.1 mM NaVanadate, 250 µM KVEKIGEGTYGVVYK (Cdc2 Peptid),” for “EGTA, 0.66 mg/ml Myelin-Basisprotein,”, “etwa 500” for “etwa 50”

Sequence of JNK3 (r) (P49187 whole entry): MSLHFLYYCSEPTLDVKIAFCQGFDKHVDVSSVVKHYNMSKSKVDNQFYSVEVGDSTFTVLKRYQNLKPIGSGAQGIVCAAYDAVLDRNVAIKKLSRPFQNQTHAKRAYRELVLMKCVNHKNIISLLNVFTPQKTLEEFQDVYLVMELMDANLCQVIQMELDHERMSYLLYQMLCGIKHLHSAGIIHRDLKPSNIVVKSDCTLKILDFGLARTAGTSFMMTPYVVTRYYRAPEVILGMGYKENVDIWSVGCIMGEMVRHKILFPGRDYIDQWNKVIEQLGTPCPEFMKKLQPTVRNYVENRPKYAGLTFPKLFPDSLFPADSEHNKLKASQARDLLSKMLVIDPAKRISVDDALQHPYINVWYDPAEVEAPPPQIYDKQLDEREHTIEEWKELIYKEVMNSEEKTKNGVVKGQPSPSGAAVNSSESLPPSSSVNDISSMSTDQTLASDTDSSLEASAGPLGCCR
Sequence of Lck (h) (P06239 whole entry): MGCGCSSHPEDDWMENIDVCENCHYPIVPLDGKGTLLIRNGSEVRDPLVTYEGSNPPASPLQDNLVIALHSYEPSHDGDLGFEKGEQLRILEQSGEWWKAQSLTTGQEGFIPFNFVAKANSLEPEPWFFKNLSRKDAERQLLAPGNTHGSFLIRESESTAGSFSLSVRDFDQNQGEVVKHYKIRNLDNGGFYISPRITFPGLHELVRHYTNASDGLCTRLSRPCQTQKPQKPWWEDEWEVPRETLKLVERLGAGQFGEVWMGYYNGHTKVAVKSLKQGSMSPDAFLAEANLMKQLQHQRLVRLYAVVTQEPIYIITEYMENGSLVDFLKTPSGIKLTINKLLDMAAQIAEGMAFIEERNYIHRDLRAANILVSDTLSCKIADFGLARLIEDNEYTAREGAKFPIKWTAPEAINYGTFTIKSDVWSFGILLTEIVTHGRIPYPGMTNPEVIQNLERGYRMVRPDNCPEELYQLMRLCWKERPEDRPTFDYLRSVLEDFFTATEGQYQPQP
Sequence of PKB (h) (P31749 whole entry): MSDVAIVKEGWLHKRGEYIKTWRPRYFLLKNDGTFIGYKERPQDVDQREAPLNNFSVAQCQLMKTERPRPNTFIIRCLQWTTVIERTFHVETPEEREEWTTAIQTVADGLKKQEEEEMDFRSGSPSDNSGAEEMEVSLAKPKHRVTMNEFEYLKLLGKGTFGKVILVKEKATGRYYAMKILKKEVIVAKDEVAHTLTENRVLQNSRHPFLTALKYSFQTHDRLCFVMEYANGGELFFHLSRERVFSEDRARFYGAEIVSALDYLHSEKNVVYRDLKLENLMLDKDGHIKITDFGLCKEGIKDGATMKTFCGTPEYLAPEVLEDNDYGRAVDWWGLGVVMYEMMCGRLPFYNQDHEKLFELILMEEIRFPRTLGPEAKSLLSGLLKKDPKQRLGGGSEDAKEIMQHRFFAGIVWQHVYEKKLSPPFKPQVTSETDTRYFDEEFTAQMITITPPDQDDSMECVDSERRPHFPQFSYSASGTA
Sequence of SAPK2a (h) (Q16539 whole entry): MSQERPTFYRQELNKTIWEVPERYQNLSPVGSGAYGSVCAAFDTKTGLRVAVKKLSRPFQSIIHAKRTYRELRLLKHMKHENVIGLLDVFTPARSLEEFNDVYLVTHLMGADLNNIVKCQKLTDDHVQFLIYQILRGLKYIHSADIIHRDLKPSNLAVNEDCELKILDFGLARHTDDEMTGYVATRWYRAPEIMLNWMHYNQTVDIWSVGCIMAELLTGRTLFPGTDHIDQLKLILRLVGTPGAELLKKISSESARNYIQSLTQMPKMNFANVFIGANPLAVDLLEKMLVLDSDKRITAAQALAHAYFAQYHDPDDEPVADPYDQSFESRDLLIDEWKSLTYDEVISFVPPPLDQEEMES
Sequence of MEK1 (h) (Q02750 whole entry): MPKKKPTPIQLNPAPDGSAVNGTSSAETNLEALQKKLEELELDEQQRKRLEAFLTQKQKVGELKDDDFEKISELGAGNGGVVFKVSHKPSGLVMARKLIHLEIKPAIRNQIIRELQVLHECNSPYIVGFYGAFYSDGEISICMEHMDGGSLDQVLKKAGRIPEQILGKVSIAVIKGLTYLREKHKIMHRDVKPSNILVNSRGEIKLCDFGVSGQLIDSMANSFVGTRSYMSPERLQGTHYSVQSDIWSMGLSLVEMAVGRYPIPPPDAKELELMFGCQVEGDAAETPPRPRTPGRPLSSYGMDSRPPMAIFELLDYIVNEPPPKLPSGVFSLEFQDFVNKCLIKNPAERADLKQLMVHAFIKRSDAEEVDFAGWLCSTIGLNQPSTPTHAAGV
Sequence of MAPK2 (h) (P28482 whole entry): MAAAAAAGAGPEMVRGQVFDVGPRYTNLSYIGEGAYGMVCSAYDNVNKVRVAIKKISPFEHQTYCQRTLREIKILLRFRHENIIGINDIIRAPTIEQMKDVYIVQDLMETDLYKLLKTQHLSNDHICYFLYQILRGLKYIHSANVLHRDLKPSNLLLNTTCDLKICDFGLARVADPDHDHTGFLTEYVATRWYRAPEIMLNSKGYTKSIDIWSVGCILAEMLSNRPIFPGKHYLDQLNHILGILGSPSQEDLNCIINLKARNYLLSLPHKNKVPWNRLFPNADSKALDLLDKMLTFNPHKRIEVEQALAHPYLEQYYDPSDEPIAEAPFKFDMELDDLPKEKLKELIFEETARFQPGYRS
Sequence of c-RAF (h) (P04049 whole entry): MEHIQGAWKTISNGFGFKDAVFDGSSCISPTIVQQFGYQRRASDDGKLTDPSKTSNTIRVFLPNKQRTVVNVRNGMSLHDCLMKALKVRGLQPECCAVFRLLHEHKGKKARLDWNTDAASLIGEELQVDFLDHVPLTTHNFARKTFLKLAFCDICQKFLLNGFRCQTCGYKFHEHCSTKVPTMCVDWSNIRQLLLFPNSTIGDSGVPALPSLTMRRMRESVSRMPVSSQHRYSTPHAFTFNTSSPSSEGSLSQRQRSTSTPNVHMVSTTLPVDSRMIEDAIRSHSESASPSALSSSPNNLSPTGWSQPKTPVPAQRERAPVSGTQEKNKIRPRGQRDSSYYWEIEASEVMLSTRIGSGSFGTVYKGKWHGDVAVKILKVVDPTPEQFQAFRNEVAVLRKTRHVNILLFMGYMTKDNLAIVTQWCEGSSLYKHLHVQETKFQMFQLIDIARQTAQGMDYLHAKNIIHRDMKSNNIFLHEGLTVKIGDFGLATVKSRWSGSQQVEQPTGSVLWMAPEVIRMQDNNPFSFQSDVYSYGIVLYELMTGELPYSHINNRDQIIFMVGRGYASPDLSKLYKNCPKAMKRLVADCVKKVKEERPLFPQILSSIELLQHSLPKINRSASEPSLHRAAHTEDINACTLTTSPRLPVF
Sequence of MAPK1 (h) (P27361 whole entry): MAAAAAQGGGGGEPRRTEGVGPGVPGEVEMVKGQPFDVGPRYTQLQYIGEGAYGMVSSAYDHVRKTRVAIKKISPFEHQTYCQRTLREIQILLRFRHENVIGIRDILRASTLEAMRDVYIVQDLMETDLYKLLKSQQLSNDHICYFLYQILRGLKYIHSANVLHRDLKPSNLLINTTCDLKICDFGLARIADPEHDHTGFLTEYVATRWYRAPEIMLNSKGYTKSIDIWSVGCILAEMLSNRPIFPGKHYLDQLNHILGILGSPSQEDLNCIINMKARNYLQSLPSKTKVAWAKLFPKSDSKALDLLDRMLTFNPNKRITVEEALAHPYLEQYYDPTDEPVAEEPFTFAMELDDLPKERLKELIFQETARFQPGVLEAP
Sequence of GSK3β (h) (P49841 whole entry): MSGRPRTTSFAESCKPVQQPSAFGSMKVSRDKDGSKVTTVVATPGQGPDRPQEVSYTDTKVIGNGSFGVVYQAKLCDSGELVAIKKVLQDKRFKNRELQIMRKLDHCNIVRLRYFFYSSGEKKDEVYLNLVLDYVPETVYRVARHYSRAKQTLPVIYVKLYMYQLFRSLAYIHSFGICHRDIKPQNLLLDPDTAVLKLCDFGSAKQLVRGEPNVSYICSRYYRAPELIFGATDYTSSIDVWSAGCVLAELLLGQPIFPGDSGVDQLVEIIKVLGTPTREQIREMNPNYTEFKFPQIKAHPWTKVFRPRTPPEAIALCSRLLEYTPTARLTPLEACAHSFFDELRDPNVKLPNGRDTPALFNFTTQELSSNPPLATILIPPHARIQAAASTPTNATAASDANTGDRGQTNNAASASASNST

| SMILES | inhibition at 30 µM (MAPK2 (h)) [%] | inhibition at 30 µM (c-RAF (h)) [%] | inhibition at 30 µM (SAPK2a (h)) [%] | inhibition at 30 µM (GSK3β (h)) [%] | Hemmung von Kinasen in % ROCKII (h) (ROCKII (h)) [%] | inhibition at 30 µM (MAPK1 (h)) [%] | inhibition at 30 µM (JNK3 (r)) [%] | Hemmung von Kinasen in % PKA (h) (PKA (h)) [%] | inhibition at 30 µM (PKB (h)) [%] | inhibition at 30 µM (MEK1 (h)) [%] | inhibition at 30 µM (Lck (h)) [%] |
| --- | --- | --- | --- | --- | --- | --- | --- | --- | --- | --- | --- |
| Fc1ccc(Cn2cnc3c(Sc4ccccc4)ncnc32)cc1 [Verbd. 76, 9-(4-Fluoro-benzyl)-6-phenylsulfanyl-9H-purin] | 0 | 0 | 67 | 0 | 2 | 17 | 0 | 0 | 13 | 1 | 12 |
| Fc1ccc(Cn2cnc3c(Sc4ccc(F)cc4)ncnc32)cc1 [Verbd. 77, 9-(4-Fluoro-benzyl)-6-(4-fluoro-phenylsulfanyl)-9H-purin] | 0 | 0 | 27 | 8 | 0 | 6 | 0 | 0 | 0 | 3 | 16 |
| Cn1c(C#CCCO)nc2c(Sc3ccccc3)ncnc21 [Verbd. 79, 4-(9-Methyl-6-phenylsulfanyl-9H-purin-8-yl)-but-3-yn-1-ol] | 0 | 0 | 3 | 0 | 0 | 0 | 0 | 0 | 33 | 0 | 11 |
